Measured values: patent US12324802B2, “Modulators of cystic fibrosis transmembrane conductance regulator” (Vertex Pharmaceuticals Incorporated, priority 2020, dated 2025)

Molecular target: T1, CFTR (F508del/MF-HBE cells) (Homo sapiens, UniProt P13569, DEL508-508)
T1 construct: human bronchial epithelial (HBE) cells derived from CF subjects heterozygous for F508del and a minimal function CFTR mutation; endogenous in cells; host or cells: primary human bronchial epithelial cells from CF subjects (F508del/MF genotype)
T1 sequence (P13569 with tags, fused parts or gaps DEL508-508): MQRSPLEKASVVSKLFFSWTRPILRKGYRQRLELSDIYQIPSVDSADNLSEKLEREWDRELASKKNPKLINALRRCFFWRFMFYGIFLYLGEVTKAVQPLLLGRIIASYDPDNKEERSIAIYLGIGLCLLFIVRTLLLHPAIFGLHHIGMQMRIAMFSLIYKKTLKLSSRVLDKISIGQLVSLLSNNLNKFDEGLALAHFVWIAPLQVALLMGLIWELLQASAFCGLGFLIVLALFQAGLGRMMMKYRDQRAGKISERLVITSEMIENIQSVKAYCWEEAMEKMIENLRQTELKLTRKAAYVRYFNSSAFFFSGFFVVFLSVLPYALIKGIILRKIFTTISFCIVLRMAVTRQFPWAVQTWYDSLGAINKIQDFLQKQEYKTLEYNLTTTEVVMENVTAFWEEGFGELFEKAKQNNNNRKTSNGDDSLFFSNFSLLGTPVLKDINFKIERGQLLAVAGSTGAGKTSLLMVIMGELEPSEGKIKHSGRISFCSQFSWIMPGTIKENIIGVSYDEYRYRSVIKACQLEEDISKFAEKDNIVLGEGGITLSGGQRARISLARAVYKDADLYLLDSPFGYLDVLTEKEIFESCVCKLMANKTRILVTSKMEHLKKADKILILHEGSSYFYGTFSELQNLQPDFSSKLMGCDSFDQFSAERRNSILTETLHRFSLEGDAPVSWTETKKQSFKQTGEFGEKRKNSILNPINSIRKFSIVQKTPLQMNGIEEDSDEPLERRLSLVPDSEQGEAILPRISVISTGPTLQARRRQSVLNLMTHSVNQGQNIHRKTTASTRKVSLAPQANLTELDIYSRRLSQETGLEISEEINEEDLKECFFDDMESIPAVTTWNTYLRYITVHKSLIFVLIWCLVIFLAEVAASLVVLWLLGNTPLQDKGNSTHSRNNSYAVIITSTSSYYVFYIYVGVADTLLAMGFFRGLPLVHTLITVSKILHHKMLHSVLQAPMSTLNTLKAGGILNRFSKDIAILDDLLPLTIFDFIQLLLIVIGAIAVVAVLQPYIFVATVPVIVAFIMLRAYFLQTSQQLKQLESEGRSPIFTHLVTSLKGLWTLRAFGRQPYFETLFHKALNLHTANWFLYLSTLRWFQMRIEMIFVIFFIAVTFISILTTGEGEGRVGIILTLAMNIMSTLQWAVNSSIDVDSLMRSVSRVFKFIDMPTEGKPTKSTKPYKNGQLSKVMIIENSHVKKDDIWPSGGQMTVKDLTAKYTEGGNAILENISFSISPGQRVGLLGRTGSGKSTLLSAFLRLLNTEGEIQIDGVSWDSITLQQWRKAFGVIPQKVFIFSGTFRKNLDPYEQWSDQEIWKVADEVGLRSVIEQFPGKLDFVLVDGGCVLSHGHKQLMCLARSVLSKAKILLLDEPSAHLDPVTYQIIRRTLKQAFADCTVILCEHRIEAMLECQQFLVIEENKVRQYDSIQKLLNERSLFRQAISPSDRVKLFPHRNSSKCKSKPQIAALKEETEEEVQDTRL
Test: Ussing chamber assay of CFTR-mediated short-circuit currents (identification of potentiator compounds)
Assay type: cell-based
Conditions: CFTR-mediated ISC in F508del/MF-HBE cells; incubated 18-24 hours at 37° C. with 10 μM (14S)-8-[3-(2-{dispiro[2.0.2.1]heptan-7-yl}ethoxy)-1H-pyrazol-1-yl]-...-2,2,4-trione, 20% human serum
Experimental: Ussing Chamber Assay of CFTR-Mediated Short-Circuit Currents
Ussing chamber experiments were performed using human bronchial epithelial (HBE) cells derived from CF subjects heterozygous for F508del and a minimal function CFTR mutation (F508del/MF-HBE) and cultured as previously described (Neuberger T, Burton B, Clark H, Van Goor F Methods Mol Biol 2011:741:39-54). After four days the apical media was removed, and the cells were grown at an air liquid interface for >14 days prior to use.
To isolate the CFTR-mediated short-circuit (ISC) current, F508del/MF-HBE grown on Costar® Snapwell™ cell culture inserts were mounted in an Ussing chamber and the transepithelial ISC was measured under voltage-clamp recording conditions (Vhold=0 mV) at 37° C. The basolateral solution contained (in mM) 145 NaCl, 0.83 K2HPO4, 3.3 KH2PO4, 1.2 MgCl2, 1.2 CaCl2), 10 Glucose, 10 HEPES (pH adjusted to 7.4 with NaOH) and the apical solution contained (in mM) 145 NaGluconate, 1.2 MgCl2, 1.2 CaCl2), 10 glucose, 10 HEPES (pH adjusted to 7.4 with NaOH) and 30 μM amiloride to block the epithelial sodium channel. Forskolin (20 μM) was added to the apical surface to activate CFTR, followed by apical addition of a CFTR inhibitor cocktail consisting of BPO, GlyH-101 and CFTR inhibitor 172 (each at 20 μM final assay concentration) to specifically isolate CFTR currents. The CFTR-mediated ISC (μA/cm^2) for each condition was determined from the peak forskolin response to the steady-state current following inhibition.
Identification of Potentiator Compounds
The activity of the CFTR potentiator compounds on the CFTR-mediated ISC was determined in Ussing chamber studies as described above. The F508del/MF-HBE cell cultures were incubated with the potentiator compounds at a range of concentrations in combination with 10 μM (14S)-8-[3-(2-{dispiro[2.0.2.1]heptan-7-yl}ethoxy)-1H-pyrazol-1-yl]-12,12-dimethyl-2λ^6-thia-3,9,11,18,23-pentaazatetracyclo [17.3.1.111,14.05,10]tetracosa-1(22),5,7,9,19(23),20-hexaene-2,2,4-trione for 18-24 hours at 37° C. and in the presence of 20% human serum. The concentration of potentiator compounds and (14S)-8-[3-(2-{dispiro[2.0.2.1]heptan-7-yl}ethoxy)-1H-pyrazol-1-yl]-12,12-dimethyl-2λ^6-thia-3,9,11,18,23-pentaazatetracyclo [17.3.1.111,14.05,10]tetracosa-1(22),5,7,9,19(23),20-hexaene-2,2,4-trione used during the 18-24 hours incubations was kept constant throughout the Ussing chamber measurement of the CFTR-mediated ISC to ensure compounds were present throughout the entire experiment. The efficacy and potency of the putative F508del potentiators was compared to that of the known Vertex potentiator, ivacaftor (N-[2,4-bis(1,1-dimethylethyl)-5-hydroxyphenyl]-1,4-dihydro-4-oxoquinoline-3-carboxamide).

Compound | EC50 [nM]
CN1CCC=CCCC(=O)C2=NN=C(O2)c2nc1c(C(F)(F)F)cc2N (mixture of isomers) [Compound 75, 17-amino-13-methyl-15-(trifluoromethyl)-19-oxa-3,4,13,18-tetrazatricyclo[12.3.1.12,5]nonadeca-1(18),2,4,9,14,16-hexaen-6-one] | < 500
Nc1cc(-c2ccccc2)c2nc1-c1nnc(o1)C(O)(C(F)(F)F)CCCCC[C@@H]1CCCN21 (mixture of isomers) [Compound 118, (12R)-20-amino-18-phenyl-6-(trifluoromethyl)-22-oxa-3,4,16,21-tetraazatetracyclo[15.3.1.12,5.012,16]docosa-1(21),2,4,17,19-pentaen-6-ol] | > 1000
Nc1cc(C2CCOCC2)c2nc1-c1nnc(o1)C(O)(C(F)(F)F)CCCCC[C@@H]1CCCN21 (mixture of isomers) [Compound 123, (12R)-20-amino-18-(oxan-4-yl)-6-(trifluoromethyl)-22-oxa-3,4,16,21-tetraazatetracyclo[15.3.1.12,5.012,16]docosa-1(21),2,4,17,19-pentaen-6-ol] | > 1000
Nc1cc(-c2ccncc2)c2nc1-c1nnc(o1)C(O)(C(F)(F)F)CCCCC[C@@H]1CCCN21 (mixture of isomers) [Compound 125, (12R)-20-amino-18-(pyridin-4-yl)-6-(trifluoromethyl)-22-oxa-3,4,16,21-tetraazatetracyclo[15.3.1.12,5.012,16]docosa-1(21),2,4,17,19-pentaen-6-ol] | > 1000
Nc1cc(C2CCOC2)c2nc1-c1nnc(o1)C(O)(C(F)(F)F)CCCCC[C@@H]1CCCN21 (mixture of isomers) [Compound 126, (12R)-20-amino-18-(oxolan-3-yl)-6-(trifluoromethyl)-22-oxa-3,4,16,21-tetraazatetracyclo[15.3.1.12,5.012,16]docosa-1(21),2,4,17,19-pentaen-6-ol] | > 1000
Cn1cc(-c2cc(N)c3nc2N2CCC[C@H]2CCCCCC(O)(C(F)(F)F)C2=NN=C3O2)cn1 (mixture of isomers) [Compound 127, (12R)-20-amino-18-(1-methyl-1H-pyrazol-4-yl)-6-(trifluoromethyl)-22-oxa-3,4,16,21-tetraazatetracyclo[15.3.1.12,5.012,16]docosa-1(21),2,4,17,19-pentaen-6-ol] | < 500
Nc1cc(-c2cn[nH]c2)c2nc1-c1nnc(o1)C(O)(C(F)(F)F)CCCCC[C@@H]1CCCN21 (mixture of isomers) [Compound 128, (12R)-20-amino-18-(1H-pyrazol-4-yl)-6-(trifluoromethyl)-22-oxa-3,4,16,21-tetraazatetracyclo[15.3.1.12,5.012,16]docosa-1(21),2,4,17,19-pentaen-6-ol] | < 500
Nc1cc(C2CCCCC2)c2nc1-c1nnc(o1)C(O)(C(F)(F)F)CCCCC[C@@H]1CCCN21 (mixture of isomers) [Compound 129, (12R)-20-amino-18-cyclohexyl-6-(trifluoromethyl)-22-oxa-3,4,16,21-tetraazatetracyclo[15.3.1.12,5.012,16]docosa-1(21),2,4,17,19-pentaen-6-ol] | < 500
Nc1cc(-c2ccccn2)c2nc1-c1nnc(o1)C(O)(C(F)(F)F)CCCCC[C@@H]1CCCN21 (mixture of isomers) [Compound 132, (12R)-20-amino-18-(pyridin-2-yl)-6-(trifluoromethyl)-22-oxa-3,4,16,21-tetraazatetracyclo[15.3.1.12,5.012,16]docosa-1(21),2,4,17,19-pentaen-6-ol] | > 1000
Nc1cc(S(=O)(=O)c2ccccc2)c2nc1-c1nnc(o1)C(O)(C(F)(F)F)CCCCC[C@@H]1CCCN21 (mixture of isomers) [Compound 133, (12R)-20-amino-18-(benzenesulfonyl)-6-(trifluoromethyl)-22-oxa-3,4,16,21-tetraazatetracyclo[15.3.1.12,5.012,16]docosa-1(20),2,4,17(21),18-pentaen-6-ol] | < 500
Nc1cc(Cc2ccccc2)c2nc1-c1nnc(o1)C(O)(C(F)(F)F)CCCCC[C@@H]1CCCN21 (mixture of isomers) [Compound 137, (12R)-20-amino-18-benzyl-6-(trifluoromethyl)-22-oxa-3,4,16,21-tetraazatetracyclo[15.3.1.12,5.012,16]docosa-1(21),2,4,17,19-pentaen-6-ol] | < 500
Nc1cc(C(F)(F)F)c2nc1-c1nnc(o1)[C@@](O)(C(F)(F)F)c1cc(ccc1F)C=CC[C@@H]1CCCN21 (mixture of isomers) [Compound 138, (6R,15S)-23-amino-8-fluoro-6,21-bis(trifluoromethyl)-26-oxa-3,4,19,24-tetraazapentacyclo[18.3.1.12,5.17,11.015,19]hexacosa-1(24),2,4,7(25),8,10,12,20,22-nonaen-6-ol] | < 500
Nc1cc(C(F)(F)F)c2nc1-c1nnc(o1)[C@](O)(C(F)(F)F)c1cc(ccc1F)C=CC[C@@H]1CCCN21 (mixture of isomers) [Compound 139, (6S,15S)-23-amino-8-fluoro-6,21-bis(trifluoromethyl)-26-oxa-3,4,19,24-tetraazapentacyclo[18.3.1.12,5.17,11.015,19]hexacosa-1(24),2,4,7(25),8,10,12,20,22-nonaen-6-ol] | > 1000
NC(=O)c1cc(N)c2nc1N1CCC[C@H]1CCCCCC(O)(C(F)(F)F)C1=NN=C2O1 (mixture of isomers) [Compound 142, (12R)-20-amino-6-hydroxy-6-(trifluoromethyl)-22-oxa-3,4,16,21-tetraazatetracyclo[15.3.1.12,5.012,16]docosa-1(21),2,4,17,19-pentaene-18-carboxamide] | > 1000
Nc1cc(S(=O)(=O)c2ccc(OC(F)(F)F)cc2)c2nc1-c1nnc(o1)C(O)(C(F)(F)F)CCCCC[C@@H]1CCCN21 (mixture of isomers) [Compound 143, (12R)-20-amino-18-[4-(trifluoromethoxy)benzenesulfonyl]-6-(trifluoromethyl)-22-oxa-3,4,16,21-tetraazatetracyclo[15.3.1.12,5.012,16]docosa-1(20),2,4,17(21),18-pentaen-6-ol] | < 500
Nc1cc([S+]([O-])c2ccc(OC(F)(F)F)cc2)c2nc1-c1nnc(o1)C(O)(C(F)(F)F)CCCCC[C@@H]1CCCN21 (mixture of isomers) [Compound 145, (12R)-20-amino-18-[4-(trifluoromethoxy)benzenesulfinyl]-6-(trifluoromethyl)-22-oxa-3,4,16,21-tetraazatetracyclo[15.3.1.12,5.012,16]docosa-1(21),2,4,17,19-pentaen-6-ol] | < 500
Nc1cc(C(F)(F)F)c2nc1-c1nnc(o1)[C@](O)(C(F)(F)F)CCCCC[C@H]1CCCN21 (single isomer, unassigned) [Compound 6] | 500 to 1000
Nc1cc(C(F)(F)F)c2nc1-c1nnc(o1)[C@@](O)(C(F)(F)F)CCCCC[C@H]1CCCN21 (single isomer, unassigned) [Compound 7] | < 500
CN1CCCCCCC(O)(C(F)(F)F)C2=NN=C(O2)c2nc1c(C(F)(F)F)cc2N (single isomer, unassigned) [Compound 19, 17-amino-13-methyl-6,15-bis(trifluoromethyl)-19-oxa-3,4,13,18-tetrazatricyclo[12.3.1.12,5]nonadeca-1(18),2,4,14,16-pentaen-6-ol] | < 500
CN1CCCCCCC(O)(C(F)(F)F)C2=NN=C(O2)c2nc1c(C(F)(F)F)cc2N (single isomer, unassigned) [Compound 20, 17-amino-13-methyl-6,15-bis(trifluoromethyl)-19-oxa-3,4,13,18-tetrazatricyclo[12.3.1.12,5]nonadeca-1(18),2,4,14,16-pentaen-6-ol] | 500 to 1000
Nc1cc(C(F)(F)F)c2nc1-c1nnc(o1)C(O)CCCCC[C@@H]1CCCN21 (single isomer, unassigned) [Compound 21] | < 500
